Laboratory results from ChEMBL document CHEMBL2062432, “Design and synthesis of novel DFG-out RAF/vascular endothelial growth factor receptor 2 (VEGFR2) inhibitors: 2. Synthesis and characterization of a novel imide-type prodrug for improving oral absorption” (Bioorg Med Chem, 2012).

Legend:
Mus musculus [1] = assay: Inhibition of VEGFR2-mediated ERK1/2 phosphorylation in human A375 cells xenografted athymic nude F344/N Jcl-rnu/rnu […] at 32.3 mg/kg, po administered as single dose after 4 hrs by immunoblotting relative to vehicle-treated control; values are per cent of control; details: A-375, po
Canis familiaris [2] = assay: AUC (0 to 24 hrs) in dog assessed as tert-butyl 5-(2-(cyclopropanecarboxamido)thiazolo[5,4-b]pyridin-5-yloxy)-2-fluorophenylcarbamate level at 32.3 mg/kg, po administered as single dose; format: ADME, organism-based, Canis lupus familiaris, Plasma; parameters: time < 24 hr, dose 32.3 mg/kg, route oral; details: in vivo
Liver [3] = assay: Ratio of prodrug conversion assessed a 2-chloro-3-(1-cyanocyclopropyl)-N-[5-({2-[(cyclopropylcarbonyl) amino][1,3]thiazolo[5,4-b]pyridin-5-yl}oxy)-2-fluorophenyl] benzamide level to drug metabolism assessed as tert-butyl 5-(2-(cyclopropanecarboxamido)thiazolo[5,4-b]pyridin-5-yloxy)-2-fluorophenylcarbamate level in mouse liver microsomes; format: ADME, Microsome
Mus musculus [4] = assay: AUC (0 to 24 hrs) in mouse assessed as 2-chloro-3-(1-cyanocyclopropyl)-N-[5-({2-[(cyclopropylcarbonyl) amino][1,3]thiazolo[5,4-b]pyridin-5-yl}oxy)-2-fluorophenyl] benzamide level at 32.3 mg/kg, po administered as single dose; format: ADME, organism-based, Plasma; parameters: time < 24 hr, dose 32.3 mg/kg, route oral; details: in vivo
Rattus norvegicus [5] = assay: AUC (0 to 24 hrs) in nude rat assessed as tert-butyl 5-(2-(cyclopropanecarboxamido)thiazolo[5,4-b]pyridin-5-yloxy)-2-fluorophenylcarbamate level at 12.9 mg/kg, po administered as single dose; format: ADME, organism-based, Plasma; parameters: time < 24 hr, dose 12.9 mg/kg, route oral; details: in vivo
Rhesus monkey [6] = assay: AUC (0 to 24 hrs) in monkey assessed as 2-chloro-3-(1-cyanocyclopropyl)-N-[5-({2-[(cyclopropylcarbonyl) amino][1,3]thiazolo[5,4-b]pyridin-5-yl}oxy)-2-fluorophenyl] benzamide level at 32.3 mg/kg, po administered as single dose; format: ADME, organism-based, Macaca mulatta, Plasma; parameters: time < 24 hr, dose 32.3 mg/kg, route oral; details: in vivo
Rattus norvegicus [7] = assay: Ratio of AUC (0 to 24 hrs) assessed as 2-chloro-3-(1-cyanocyclopropyl)-N-[5-({2-[(cyclopropylcarbonyl) amino][1,3]thiazolo[5,4-b]pyridin-5-yl}oxy)-2-fluorophenyl] benzamide level to AUC (0 to 24hrs) assessed as tert-butyl 5-(2-(cyclopropanecarboxamido)thiazolo[5,4-b]pyridin-5-yloxy)-2-fluorophenylcarbamate level in nude rat at 12.9 mg/kg, po; format: ADME, organism-based; parameters: dose 12.9 mg/kg, route oral; details: in vivo
Rattus norvegicus [8] = assay: AUC (0 to 24 hrs) in nude rat assessed as tert-butyl 2-chloro-3-(1-cyanocyclopropyl)benzoyl(5-(2-(cyclopropanecarboxamido)thiazolo[5,4-b]pyridin-5-yloxy)-2-fluorophenyl)carbamate level at 12.9 mg/kg, po administered as single dose; format: ADME, organism-based, Plasma; parameters: time < 24 hr, dose 12.9 mg/kg, route oral; details: in vivo
[9] = Thermodynamic solubility of the compound in JP2 solution at pH 6.8 in presence of 20 mM bile acid; format: physicochemical; details: JP2 solution with 20 mM bile acid, read-out: Therm_solubility
Rhesus monkey [10] = assay: Ratio of AUC (0 to 24 hrs) in monkey assessed as 2-chloro-3-(1-cyanocyclopropyl)-N-[5-({2-[(cyclopropylcarbonyl) amino][1,3]thiazolo[5,4-b]pyridin-5-yl}oxy)-2-fluorophenyl] benzamide level to AUC (0 to 24hrs) in monkey assessed as tert-butyl 5-(2-(cyclopropanecarboxamido)thiazolo[5,4-b]pyridin-5-yloxy)-2-fluorophenylcarbamate level; format: ADME, organism-based, Macaca mulatta; details: in vivo
Liver microsomes [11] = assay: Ratio of prodrug conversion assessed a 2-chloro-3-(1-cyanocyclopropyl)-N-[5-({2-[(cyclopropylcarbonyl) amino][1,3]thiazolo[5,4-b]pyridin-5-yl}oxy)-2-fluorophenyl] benzamide level to drug metabolism assessed as tert-butyl 5-(2-(cyclopropanecarboxamido)thiazolo[5,4-b]pyridin-5-yloxy)-2-fluorophenylcarbamate level in human liver microsomes; format: ADME, Microsome
Canis familiaris [12] = assay: AUC (0 to 24 hrs) in dog assessed as tert-butyl 2-chloro-3-(1-cyanocyclopropyl)benzoyl(5-(2-(cyclopropanecarboxamido)thiazolo[5,4-b]pyridin-5-yloxy)-2-fluorophenyl)carbamate level at 32.3 mg/kg, po administered as single dose; format: ADME, organism-based, Canis lupus familiaris, Plasma; parameters: time < 24 hr, dose 32.3 mg/kg, route oral; details: in vivo
Canis familiaris [13] = assay: AUC (0 to 24 hrs) in dog assessed as 2-chloro-3-(1-cyanocyclopropyl)-N-[5-({2-[(cyclopropylcarbonyl) amino][1,3]thiazolo[5,4-b]pyridin-5-yl}oxy)-2-fluorophenyl] benzamide level at 32.3 mg/kg, po administered as single dose; format: ADME, organism-based, Canis lupus familiaris, Plasma; parameters: time < 24 hr, dose 32.3 mg/kg, route oral; details: in vivo
Rattus norvegicus [14] = assay: AUC (0 to 24 hrs) in nude rat assessed as 2-chloro-3-(1-cyanocyclopropyl)-N-[5-({2-[(cyclopropylcarbonyl) amino][1,3]thiazolo[5,4-b]pyridin-5-yl}oxy)-2-fluorophenyl] benzamide level at 64.6 mg/kg, po administered as single dose; format: ADME, organism-based, Plasma; parameters: time < 24 hr, dose 64.6 mg/kg, route oral; details: in vivo
Rattus norvegicus [15] = assay: AUC (0 to 24 hrs) in nude rat assessed as tert-butyl 2-chloro-3-(1-cyanocyclopropyl)benzoyl(5-(2-(cyclopropanecarboxamido)thiazolo[5,4-b]pyridin-5-yloxy)-2-fluorophenyl)carbamate level at 64.6 mg/kg, po administered as single dose; format: ADME, organism-based, Plasma; parameters: time < 24 hr, dose 64.6 mg/kg, route oral; details: in vivo
A-375 [16] = assay: Antitumor activity against human A375 cells xenografted in athymic nude F344/N jcl-rnu/rnu […] assessed as tumor regression at 129 mg/kg, po administered BID for 2 weeks measured on day 14 relative to control; format: functional
Liver [17] = assay: Ratio of prodrug conversion assessed a 2-chloro-3-(1-cyanocyclopropyl)-N-[5-({2-[(cyclopropylcarbonyl) amino][1,3]thiazolo[5,4-b]pyridin-5-yl}oxy)-2-fluorophenyl] benzamide level to drug metabolism assessed as tert-butyl 5-(2-(cyclopropanecarboxamido)thiazolo[5,4-b]pyridin-5-yloxy)-2-fluorophenylcarbamate level in dog liver microsomes; format: ADME, Canis lupus familiaris, Microsome
Mus musculus [18] = assay: Inhibition of VEGFR2-mediated ERK1/2 phosphorylation in human A375 cells xenografted athymic nude F344/N Jcl-rnu/rnu […] at 129 mg/kg, po administered as single dose after 4 hrs by immunoblotting relative to vehicle-treated control; values are per cent of control; details: A-375, po
Rhesus monkey [19] = assay: AUC (0 to 24 hrs) in monkey assessed as tert-butyl 5-(2-(cyclopropanecarboxamido)thiazolo[5,4-b]pyridin-5-yloxy)-2-fluorophenylcarbamate level at 32.3 mg/kg, po administered as single dose; format: ADME, organism-based, Macaca mulatta, Plasma; parameters: time < 24 hr, dose 32.3 mg/kg, route oral; details: in vivo
Liver [20] = assay: Prodrug conversion in dog liver microsomes assessed as 2-chloro-3-(1-cyanocyclopropyl)-N-[5-({2-[(cyclopropylcarbonyl) amino][1,3]thiazolo[5,4-b]pyridin-5-yl}oxy)-2-fluorophenyl] benzamide level at 10 umol/L after 2 hrs; format: ADME, Canis lupus familiaris, Microsome; details: 10 µM
Liver microsomes [21] = assay: Ratio of prodrug conversion assessed a 2-chloro-3-(1-cyanocyclopropyl)-N-[5-({2-[(cyclopropylcarbonyl) amino][1,3]thiazolo[5,4-b]pyridin-5-yl}oxy)-2-fluorophenyl] benzamide level to drug metabolism assessed as tert-butyl 5-(2-(cyclopropanecarboxamido)thiazolo[5,4-b]pyridin-5-yloxy)-2-fluorophenylcarbamate level in rat liver microsomes; format: ADME, Microsome
Rhesus monkey [22] = assay: AUC (0 to 24 hrs) in monkey assessed as tert-butyl 2-chloro-3-(1-cyanocyclopropyl)benzoyl(5-(2-(cyclopropanecarboxamido)thiazolo[5,4-b]pyridin-5-yloxy)-2-fluorophenyl)carbamate level at 32.3 mg/kg, po administered as single dose; format: ADME, organism-based, Macaca mulatta, Plasma; parameters: time < 24 hr, dose 32.3 mg/kg, route oral; details: in vivo
Mus musculus [23] = assay: AUC (0 to 24 hrs) in mouse assessed as tert-butyl 5-(2-(cyclopropanecarboxamido)thiazolo[5,4-b]pyridin-5-yloxy)-2-fluorophenylcarbamate level at 32.3 mg/kg, po administered as single dose; format: ADME, organism-based, Plasma; parameters: time < 24 hr, dose 32.3 mg/kg, route oral; details: in vivo
Rattus norvegicus [24] = assay: AUC (0 to 24 hrs) in nude rat assessed as 2-chloro-3-(1-cyanocyclopropyl)-N-[5-({2-[(cyclopropylcarbonyl) amino][1,3]thiazolo[5,4-b]pyridin-5-yl}oxy)-2-fluorophenyl] benzamide level at 12.9 mg/kg, po administered as single dose; format: ADME, organism-based, Plasma; parameters: time < 24 hr, dose 12.9 mg/kg, route oral; details: in vivo
Mus musculus [25] = assay: Inhibition of VEGFR2-mediated ERK1/2 phosphorylation in human A375 cells xenografted athymic nude F344/N Jcl-rnu/rnu […] at 12.9 mg/kg, po administered as single dose after 4 hrs by immunoblotting relative to vehicle-treated control; values are per cent of control; details: A-375, po
Rattus norvegicus [26] = assay: Ratio of AUC (0 to 24 hrs) assessed as 2-chloro-3-(1-cyanocyclopropyl)-N-[5-({2-[(cyclopropylcarbonyl) amino][1,3]thiazolo[5,4-b]pyridin-5-yl}oxy)-2-fluorophenyl] benzamide level to AUC (0 to 24hrs) assessed as tert-butyl 5-(2-(cyclopropanecarboxamido)thiazolo[5,4-b]pyridin-5-yloxy)-2-fluorophenylcarbamate level in nude rat at 64.6 mg/kg, po; format: ADME, organism-based; parameters: dose 64.6 mg/kg, route oral; details: in vivo
Rattus norvegicus [27] = assay: AUC (0 to 24 hrs) in nude rat assessed as tert-butyl 5-(2-(cyclopropanecarboxamido)thiazolo[5,4-b]pyridin-5-yloxy)-2-fluorophenylcarbamate level at 64.6 mg/kg, po administered as single dose; format: ADME, organism-based, Plasma; parameters: time < 24 hr, dose 64.6 mg/kg, route oral; details: in vivo
[28] = Ratio of prodrug conversion assessed a 2-chloro-3-(1-cyanocyclopropyl)-N-[5-({2-[(cyclopropylcarbonyl) amino][1,3]thiazolo[5,4-b]pyridin-5-yl}oxy)-2-fluorophenyl] benzamide level to drug metabolism assessed as tert-butyl 5-(2-(cyclopropanecarboxamido)thiazolo[5,4-b]pyridin-5-yloxy)-2-fluorophenylcarbamate level in monkey liver microsomes; format: ADME, Macaca mulatta, Microsome; details: rhesus monkey
Mus musculus [29] = species: Mus musculus; assay: Ratio of AUC (0 to 24 hrs) in mouse assessed as 2-chloro-3-(1-cyanocyclopropyl)-N-[5-({2-[(cyclopropylcarbonyl) amino][1,3]thiazolo[5,4-b]pyridin-5-yl}oxy)-2-fluorophenyl] benzamide level to AUC (0 to 24hrs) in mouse assessed as tert-butyl 5-(2-(cyclopropanecarboxamido)thiazolo[5,4-b]pyridin-5-yloxy)-2-fluorophenylcarbamate level; format: ADME, organism-based; details: in vivo
Canis familiaris [30] = species: Canis familiaris; assay: Ratio of AUC (0 to 24 hrs) in dog assessed as 2-chloro-3-(1-cyanocyclopropyl)-N-[5-({2-[(cyclopropylcarbonyl) amino][1,3]thiazolo[5,4-b]pyridin-5-yl}oxy)-2-fluorophenyl] benzamide level to AUC (0 to 24hrs) in dog assessed as tert-butyl 5-(2-(cyclopropanecarboxamido)thiazolo[5,4-b]pyridin-5-yloxy)-2-fluorophenylcarbamate level; format: ADME, organism-based, Canis lupus familiaris; details: in vivo
A-375 [31] = assay: Antitumor activity against human A375 cells xenografted in athymic nude F344/N jcl-rnu/rnu […] assessed as tumor regression at >32.3 mg/kg, po administered BID for 2 weeks measured on day 14 relative to control; format: functional, organism-based
Mus musculus [32] = assay: Inhibition of […] ERK1/2 phosphorylation in human A375 cells xenografted po dosed athymic nude F344/N […] administered as single dose after 4 hrs by immunoblotting; format: functional, organism-based; details: A-375

## CC(=O)O.CC(C)(C)OC(=O)N(C(=O)c1cccc(C2(C#N)CC2)c1Cl)c1cc(Oc2ccc3nc(NC(=O)C4CC4)sc3n2)ccc1F
Mus musculus [1]
  level, % of control at 32.3 mg/kg: 34.1%
Canis familiaris [2]
  AUC: 630 ng·h/mL
Liver [3]
  Ratio: 19
Mus musculus [4]
  AUC: 4900 ng·h/mL
Rattus norvegicus [5]
  AUC: 570 ng·h/mL
Rhesus monkey [6]
  AUC: 9900 ng·h/mL
Rattus norvegicus [7]
  Ratio AUC: 2.4
Rattus norvegicus [8]
  AUC: 20 ng·h/mL
[9]
  solubility thermodynamic: 19 µg/mL
Rhesus monkey [10]
  Ratio AUC: 330
Liver microsomes [11]
  Ratio: 152
Canis familiaris [12]
  AUC: 530 ng·h/mL
Canis familiaris [13]
  AUC: 25330 ng·h/mL
Rattus norvegicus [14]
  AUC: 4280 ng·h/mL
Rattus norvegicus [15]
  AUC: 80 ng·h/mL
A-375 [16]
  T/C: 6.4%
Liver [17]
  Ratio: 3.3
Mus musculus [18]
  level, % of control at 129 mg/kg: 20.1%
Rhesus monkey [19]
  AUC: 30 ng·h/mL
Liver [20]
  Drug metabolism: 2.3%
Liver microsomes [21]
  Ratio: 0.76
Rhesus monkey [22]
  AUC: 530 ng·h/mL
Mus musculus [23]
  AUC: 500 ng·h/mL
Rattus norvegicus [24]
  AUC: 1390 ng·h/mL
Mus musculus [25]
  level, % of control at 12.9 mg/kg: 52.7%
Rattus norvegicus [26]
  Ratio AUC: 2.4
Rattus norvegicus [27]
  AUC: 1800 ng·h/mL
[28]
  Ratio: 3
Mus musculus [29]
  Ratio AUC: 9.8
Canis familiaris [30]
  Ratio AUC: 40

## CC(C)(C)OC(=O)N(C(=O)c1cccc(C2(C#N)CC2)c1Cl)c1cc(Oc2ccc3nc(NC(=O)C4CC4)sc3n2)ccc1F.O
[9]
  solubility thermodynamic: 49 µg/mL

## CC(C)(C)OC(=O)N(C(=O)c1cccc(C2(C#N)CC2)c1Cl)c1cc(Oc2ccc3nc(NC(=O)C4CC4)sc3n2)ccc1F
A-375 [31]
  Activity: Dose-dependent effect
Mus musculus [32]
  inhibition: Dose-dependent effect

## CC(C)(C)OC(=O)N(C(=O)c1cccc(C2(C#N)CC2)c1Cl)c1cc(Oc2ccc3nc(NC(=O)C4CC4)sc3n2)ccc1F.CCO
[9]
  solubility thermodynamic: 4.2 µg/mL
